The text below walks through data of patent US6989377B2, “Treating vitamin D responsive diseases” (priority 1999, dated 2006).

The subject of the experiment is DS-induced colitis in C3H/HeJ male mice. Nature of the experiment: Calcitriol prevention of DS-induced colitis. Format: in vivo, mouse. As for the experimental part:
Fecal hemoglobin was analyzed in the mice to determine bleeding from a breached intestinal barrier. […] Co., Needham Heights, Mass.), the supernatants were decanted into fresh tubes and stored frozen at -20° C. Hemoglobin in the supernatants was analyzed by a method adapted from Saitoh et al., Digestion, 56:67-75, 1995, and Liem et al., Anal. Biochem., 98:388-393, 1979, with rat hemoglobin as standard (Sigma-Aldrich). The supernatants were diluted 1:25 in TBS. […] The reaction was stopped with 100 μL of 2 M phosphoric acid, and the absorbance at 450 nm was measured with an MRX Revelation Microplate Reader (DYNEX Technologies). […] The mice were euthanized with an i.p. injection of pentobarbital. […] The fixed tissue was embedded in paraffin, sectioned at 6 μm, stained with hematoxylin and eosin, and examined by light microscopy. Scoring was conducted by a veterinary pathologist in blinded fashion. […] Clin. Invest., 98:1010-1020, 1996. The scores were summed to provide a total colitis score for each mouse. […] In particular, age-matched C3H/HeJ male mice were fed a synthetic diet (see Example 6) with or without calcitriol or prednisolone for one week. […] The mice were weighed every 3-4 days thereafter. […] Serum and colon tissue were collected on day 28. Most assays were performed as described in Example 6, and the terminal serum calcium assay was performed as described below. […] The serum was decanted and stored frozen at -20° C. The samples, standards, and buffer blanks (2 μL each) were aliquoted into duplicate wells of a 96-well plate. Calcium reagent working solution (0.25 mL), prepared according to the manufacturer's directions (Sigma Diagnostics, St. Louis, Mo.), was added to each well, and the absorbance at 570 nm was measured.

Turning to `C=C1/C(=C\C=C2/CCC[C@]3(C)[C@@H]([C@H](C)CCCC(C)(C)O)CC[C@@H]23)C[C@@H](O)C[C@@H]1O` [Calcitriol, 1,25 dihydroxyvitamin D3], the “Peak Hg in Stool” value (50 ng/day in diet from day −7, 1% DS days 0 to 5) is 4.3 ± 4.4 mg/g. For the same compound, where the note is “50 ng/day pre-treatment”, the “Effect of pre-treatment on severity of DS-induced IBD” value is on record as “reduced the severity of DS-induced IBD”. In addition, under “50 ng/day, 1% DS, score 0 to 4”, the “Colon Histopathology, Distal colon” value was 0.6 ± 0.9; the “Colon histopathology, Medial colon” value was found to be 0.4 ± 0.9; the “Colon histopathology, Proximal colon” value is on record as 0.4 ± 0.5; the “Colon histopathology, Rectum” value worked out at 1.2 ± 1.1. Also, where the note is “50 ng/day, 1% DS, total score 0 to 16”, the “Colon histopathology, Sum” value stood at 2.6 ± 1.9. For the same compound, the “Peak Hg in the stool, lower than that in the prednisolone-treated group” value (calcitriol 50 ng/day vs prednisolone 50 ng/day) came to 65%. Moreover, the “Peak Hg in the stool, lower than that in the untreated group” value (calcitriol 50 ng/day vs untreated DS group) was found to be 37%. The “Total colon histopathology score, lower than the score of the untreated group B” value (calcitriol group C vs group B) worked out at 61%. The “Total colon histopathology score, lower than the score of the prednisolone-treated group D” value (calcitriol group C vs group D) was found to be 51%.
